In patent US10933141B2, “Formulations with reduced degradation of polysorbate” (Genentech, Inc., priority 2015, dated 2021):
Entries after “also recorded” stand apart in the source; their conditions may differ.

How the values were obtained:
[1] = biological target: T1, Candida Antarctica Lipase B (CALB) (Moesziomyces antarcticus, UniProt P41365); assay: Enzymatic degradation of PS20 by CALB, PS20 by RP-ELSD; format: biochemical; settings: for PS20 degradation (in words): 15% (w/v) excipient
T1 construct: purchased Sigma Aldrich Inc. (St. Louis, Mo.)
T1 sequence (P41365 26-342): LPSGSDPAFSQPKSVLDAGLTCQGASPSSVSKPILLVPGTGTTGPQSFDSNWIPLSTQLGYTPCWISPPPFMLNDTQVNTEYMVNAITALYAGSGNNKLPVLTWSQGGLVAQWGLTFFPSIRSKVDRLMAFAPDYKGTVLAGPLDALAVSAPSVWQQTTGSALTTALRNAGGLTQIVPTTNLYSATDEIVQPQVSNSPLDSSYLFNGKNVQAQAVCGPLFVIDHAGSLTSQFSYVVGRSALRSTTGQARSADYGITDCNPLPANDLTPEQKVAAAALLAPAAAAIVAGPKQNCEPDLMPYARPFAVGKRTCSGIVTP
Protocol: Polysorbate concentration was determined using reverse phase ultra-performance liquid chromatography using evaporative light scattering detection (RP-ELSD). Samples were analyzed using an Agilent 1100 series high performance liquid chromatography system (HPLC) fitted with a Waters Oasis MAX cartridge column (20×2.1 mm, 30 μm particle size). The HPLC system was set up with a switching valve directing column flow-through to either waste or a Varian 380-LC evaporative light scattering detector set to 100° C. The mobile phases consisted of 2% formic acid in water (Pump A) and 2% formic acid in isopropanol (Pump B). The pump gradient was isocratic at 10% pump B during equilibration, linear to 20% pump B for 1 minute, isocratic at 20% pump B for 2.4 minutes, linear to 100% pump B for 0.1 minutes, isocratic at 100% pump B for 1.1 minutes, linear to 10% pump B for 0.1 minutes, and finally isocratic at 10% pump B for 1.9 minutes. The switching valve directed column flow-through to waste at the beginning of every injection, and then directed flow to the detector after 2.4 minutes until the end of the gradient. In order to quantitate the PS20 concentration, a standard curve was generated by injecting 20 μL of solutions containing between 0% w/v and 0.4% w/v PS20. For excipients which affected the migration time of PS20 through the column, PS20 standard curve solutions containing the relevant excipient were included in the analysis to facilitate accurate quantitation.
[…] Samples of 0.02% PS20 in pH 5.5 buffer containing either no additional excipient, 15% Sucrose, […] the enzymes porcine pancreatic lipase (PPL), lipoprotein lipase (LPL), Candida Antarctica lipase (CALB) and rabbit liver esterase (RLE) at room temperature. PPL samples were digested with 15 μg/mL enzyme for 4.5 hours. LPL samples were digested with 70 μg/mL enzyme for 5 hours. CALB samples were digested with 0.1 mg/mL immobilized enzyme for 1 hour. RLE samples were digested with 15 μg/mL enzyme for 5 hours. All digestions were conducted at room temperature.
PPL digestion was stopped by heat inactivation in an 85° C. water bath for 30 minutes. LPL and RLE digestion could not be stopped by heat inactivation, so the samples were analyzed immediately for PS20 content. CALB digestion was stopped by filtering out the immobilized enzyme beads. In order to permit particle formation, CALB samples were placed at 5° C. overnight. RLE and LPL samples were frozen at −20° C. overnight to impede enzymatic activity and were then thawed over ice immediately prior to particle analysis.
As described above, all samples were analyzed for PS20 content by high performance liquid chromatography (Agilent 1100 series) with an inline evaporative light scattering detector (Varian 380-LC series). Visible particle inspection was conducted on a Seidenader visual inspection instrument. Subvisible particle analysis was conducted on a HIAC 9703 particle counter.

[2] = Solubilization of existing visible and subvisible particles from enzymatic PS20 degradation (HIAC, Seidenader); format: physicochemical; settings: for amount of SVP after excipient spiked into degraded PS20 solution: 0.05% PS20 degraded with 37.5 μg/mL PPL, 35.5 mM HP-α-CD or HP-γ-CD, 0.5-15% HP-β-CD, 5° C. overnight, HIAC
Protocol: Subvisible particles were measured using a HIAC 9703 particle counter equipped with an HRDL-150 detector and a 1 mL syringe. Performance of the instrument was verified with NIST-traceable 2 μm Polystyrene bead standards at 3000 counts/mL before each measurement session. The HIAC instrument was configured to a 10 mL/min flow rate, 0.1 mL tare volume, and 0.4 mL sample volume. The samples were analyzed using 4 runs of 0.4 mL sips, with the first run of each sample was discarded to prevent measurement error due to sample carryover. Results were reported as the average values for 1.4, 2, 5, 10, 15, and 25, 50 μm analysis filter sizes.
Vials were inspected for visible particulates using a Seidenader V90-T visual inspection unit (Markt Schwaben, Germany) with vial carriage tilted to 60 degrees. Visible particle inspection of samples was performed by placing the glass vials in the holder and rotating in the presence of a Tyndall light directed through the bottom of the vial. Pre-rotation (i.e., fast rotation) was first performed to agitate the liquids, suspend, and circulate particles. Following rotation and illumination, the particles are in motion and the light causes reflections of the particles that make them visible (i.e., Tyndall effect). Visible particles were then observed using a magnifying lens. Videos and photographs of visible particles were obtained using a Samsung (seoul, South Korea) Galaxy device.
Several excipients were tested for their ability to solubilize particles produced as a result of enzymatic PS20 degradation. Solutions of concentrated HP-α-CD, HP-β-CD, HP-γ-CD, SBE-β-CD, PVP, PEG 1500, sucrose, and methionine were prepared in triplicate in pH 5.5 buffer. Particles from enzymatic PS20 degradation were prepared. Three solutions of 0.05% PS20 in pH 5.5 buffer were enzymatically degraded with 37.5 μg/mL PPL for 4.5 hours at room temperature, followed by 30 minutes of heat inactivation at 85° C. The degraded PS20 solutions were placed at 5° C. to allow for crystallization of particles.
After particle formation in the degraded PS20 solutions, the remaining sample preparation was conducted in a 5° C. cold room to prevent the PS20 derived particles from dissolving. Each degraded PS20 solution was divided into 11 aliquots and concentrated excipient was spiked into each the aliquots. The final concentration of excipient in each sample was as follows: 5% sucrose, 10 mg/mL methionine, 5% PVP, 5% PEG 1500, 15% HP-β-CD, 5% HP-β-CD, 0.5% HP-β-CD, 35.5 mM HP-α-CD, 35.5 mM HP-γ-CD, and 35.5 mM SBE-β-CD. After the addition of each excipient, samples were left at 5° C. overnight. The following day, vials were inspected for visible particles under a Seidenader visual inspection instrument. Subvisible particle counts were measured using a HIAC 9703 particle counter.

[3] = 0.02 (w/v) PS20, CALB digestion (FIG. 9)

2-hydroxypropyl-α-cyclodextrin [HP-α-CD]
PS20 degradation (in words) [1, 3]: no significant PS20 degradation | amount of SVP after excipient spiked into degraded PS20 solution [2]: significantly reduce the amount of SVP

2-hydroxypropyl-β-cyclodextrin [HP-β-CD]
PS20 degradation (in words) [1, 3]: no significant PS20 degradation | Polysorbate 20 (Relative %) ([1]; 15% w/v HP-β-CD, 0.02% PS20, pH 5.5, 0.1 mg/mL immobilized CALB, 1 hour, room temperature): 85.7% | amount of SVP after excipient spiked into degraded PS20 solution [2]: significantly reduce the amount of SVP | visible particles after spiking excipient ([2]; 15% (w/v) HP-β-CD, PS20 particles from PPL digestion): immediate solubilization of visible particles; also recorded: no visible particles

2-hydroxypropyl-γ-cyclodextrin [HP-γ-CD]
PS20 degradation ([1]; 15% HP-γ-CD, 0.02 (w/v) PS20, CALB digestion (FIG. 9)): ~82% | amount of SVP after excipient spiked into degraded PS20 solution [2]: significantly reduce the amount of SVP

OC[C@H]1O[C@@](CO)(O[C@H]2O[C@H](CO)[C@@H](O)[C@H](O)[C@H]2O)[C@@H](O)[C@@H]1O [sucrose, reference compound]
PS20 degradation (in words) [1, 3]: significant decreases in PS20 concentration
